Data from patent US20230167073A1 (Teijin Pharma Limited, priority 2020, published 2023).

Biological target: T1, Human TRPC6 (Homo sapiens, UniProt Q9Y210)
T1 construct: expressed in transfected cells
T1 sequence (Q9Y210 1-931): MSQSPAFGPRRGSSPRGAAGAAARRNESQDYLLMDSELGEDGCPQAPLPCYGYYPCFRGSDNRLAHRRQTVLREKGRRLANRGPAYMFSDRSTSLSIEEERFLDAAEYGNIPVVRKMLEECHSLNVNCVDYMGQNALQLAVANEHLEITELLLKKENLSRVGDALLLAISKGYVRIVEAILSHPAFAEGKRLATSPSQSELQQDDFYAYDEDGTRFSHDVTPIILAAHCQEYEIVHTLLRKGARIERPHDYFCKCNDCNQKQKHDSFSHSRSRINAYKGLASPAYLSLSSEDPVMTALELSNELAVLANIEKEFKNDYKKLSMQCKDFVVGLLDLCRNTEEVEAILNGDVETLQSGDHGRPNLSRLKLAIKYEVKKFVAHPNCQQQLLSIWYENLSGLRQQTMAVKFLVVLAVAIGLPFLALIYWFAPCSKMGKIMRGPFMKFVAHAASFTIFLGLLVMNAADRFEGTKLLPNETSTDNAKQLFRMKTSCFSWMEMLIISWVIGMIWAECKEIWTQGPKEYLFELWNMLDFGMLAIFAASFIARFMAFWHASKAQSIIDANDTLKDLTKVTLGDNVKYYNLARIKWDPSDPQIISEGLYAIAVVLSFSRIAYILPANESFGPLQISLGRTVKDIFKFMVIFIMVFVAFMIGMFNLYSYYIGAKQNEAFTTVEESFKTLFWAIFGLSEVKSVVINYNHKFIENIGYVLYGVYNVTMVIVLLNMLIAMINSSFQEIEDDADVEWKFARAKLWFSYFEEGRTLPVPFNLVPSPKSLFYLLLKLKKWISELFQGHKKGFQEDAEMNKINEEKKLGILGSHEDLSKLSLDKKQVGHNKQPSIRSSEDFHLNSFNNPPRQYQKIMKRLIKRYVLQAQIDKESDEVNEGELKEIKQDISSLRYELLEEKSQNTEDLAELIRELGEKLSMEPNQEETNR
Experiment: Evaluation of TRPC6 channel inhibitory activity (1), FLIPR Calcium 5 Assay Kit, OAG stimulation (Compound Nos. 1-1293)
Assay type: cell-based
Conditions: Human TRPC6 stably-expressing cells, OAG 30 μM, FLIPR Calcium 5 Assay Kit; read-out: Inhibitory activity (pIC50 class) (converted)
In short: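 Readout is pIC50 from four-parameter logistic fitting of inhibition of the OAG-evoked (30 μM final) fluorescence calcium signal. Human TRPC6 stable cells are dye-loaded with probenecid, and compound is applied 20 min ahead of agonist.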

| SMILES | IC50 [nM] |
| --- | --- |
| Cc1nc(-c2ccccc2)cn1Cc1cc(C#N)ccc1-c1ncc(CCN)cn1 [compound 1137, 4-[5-(2-aminoethyl)pyrimidin-2-yl]-3-[(2-methyl-4-phenylimidazol-1-yl)methyl]benzonitrile] | < 10 |
| COC(C)c1cn(Cc2cc(C#N)ccc2-c2ccc(CCN)cn2)c(C)n1 (stereo not drawn) [compound 1140, 4-[5-(2-aminoethyl)pyridin-2-yl]-3-[[4-(1-methoxyethyl)-2-methylimidazol-1-yl]methyl]benzonitrile] | 10 to 1000 |
| COC(C)c1cn(Cc2cc(C#N)ccc2-c2ncc(CCN)cn2)c(C)n1 (stereo not drawn) [compound 1141, 4-[5-(2-aminoethyl)pyrimidin-2-yl]-3-[[4-(1-methoxyethyl)-2-methylimidazol-1-yl]methyl]benzonitrile] | 10 to 1000 |
| CCC(OC)c1cn(Cc2cc(C#N)ccc2-c2ncc(CCN)cn2)c(C)n1 (stereo not drawn) [compound 1142, 4-[5-(2-aminoethyl)pyrimidin-2-yl]-3-[[4-(1-methoxypropyl)-2-methylimidazol-1-yl]methyl]benzonitrile] | 10 to 1000 |
| Cc1ccc(-c2cn(Cc3cc(C#N)ccc3-c3ccc(CCN)cn3)cn2)cc1 [compound 1146, 4-[5-(2-aminoethyl)pyridin-2-yl]-3-[[4-(4-methylphenyl)imidazol-1-yl]methyl]benzonitrile] | 10 to 1000 |
| N#Cc1ccc(-c2ccc(CCN)cn2)c(Cn2cnc(-c3ccc(F)cc3)c2)c1 [compound 1147, 4-[5-(2-aminoethyl)pyridin-2-yl]-3-[[4-(4-fluorophenyl)imidazol-1-yl]methyl]benzonitrile] | < 10 |
| Cc1nc(-c2ccccc2)cn1Cc1cc(C#N)ccc1-c1ccc(CCN)cn1 [compound 1150, 4-[5-(2-aminoethyl)pyridin-2-yl]-3-[(2-methyl-4-phenylimidazol-1-yl)methyl]benzonitrile] | < 10 |
| Cc1ccccc1-c1cn(Cc2cc(C#N)ccc2-c2ccc(CCN)cn2)c(C)n1 [compound 1151, 4-[5-(2-aminoethyl)pyridin-2-yl]-3-[[2-methyl-4-(2-methylphenyl)imidazol-1-yl]methyl]benzonitrile] | < 10 |
| Cc1nc(-c2ccccc2F)cn1Cc1cc(C#N)ccc1-c1ccc(CCN)cn1 [compound 1152, 4-[5-(2-aminoethyl)pyridin-2-yl]-3-[[4-(2-fluorophenyl)-2-methylimidazol-1-yl]methyl]benzonitrile] | < 10 |
| Cc1ccc(-c2cn(Cc3cc(C#N)ccc3-c3ccc(CCN)cn3)c(C)n2)cc1 [compound 1153, 4-[5-(2-aminoethyl)pyridin-2-yl]-3-[[2-methyl-4-(4-methylphenyl)imidazol-1-yl]methyl]benzonitrile] | < 10 |
| Cc1nc(-c2ccc(F)cc2)cn1Cc1cc(C#N)ccc1-c1ccc(CCN)cn1 [compound 1154, 4-[5-(2-aminoethyl)pyridin-2-yl]-3-[[4-(4-fluorophenyl)-2-methylimidazol-1-yl]methyl]benzonitrile] | < 10 |
| Cc1cccc(-c2cn(Cc3cc(C#N)ccc3-c3ccc(CCN)cn3)c(C)n2)c1 [compound 1155, 4-[5-(2-aminoethyl)pyridin-2-yl]-3-[[2-methyl-4-(3-methylphenyl)imidazol-1-yl]methyl]benzonitrile] | < 10 |
| Cc1nc(-c2cccc(F)c2)cn1Cc1cc(C#N)ccc1-c1ccc(CCN)cn1 [compound 1156, 4-[5-(2-aminoethyl)pyridin-2-yl]-3-[[4-(3-fluorophenyl)-2-methylimidazol-1-yl]methyl]benzonitrile] | < 10 |
| Cc1nc(-c2ccccn2)cn1Cc1cc(C#N)ccc1-c1ccc(CCN)cn1 [compound 1157, 4-[5-(2-aminoethyl)pyridin-2-yl]-3-[(2-methyl-4-pyridin-2-ylimidazol-1-yl)methyl]benzonitrile] | 10 to 1000 |
| Cc1cc(-c2ccccc2)nn1Cc1cc(C#N)ccc1-c1ccc(CCN)cn1 [compound 1158, 4-[5-(2-aminoethyl)pyridin-2-yl]-3-[(5-methyl-3-phenylpyrazol-1-yl)methyl]benzonitrile] | > 1000 |
| Cc1cc(C(C)(C)C)nn1Cc1cc(C#N)ccc1-c1ccc(CCN)cn1 [compound 1159, 4-[5-(2-aminoethyl)pyridin-2-yl]-3-[(3-tert-butyl-5-methylpyrazol-1-yl)methyl]benzonitrile] | 10 to 1000 |
| N#Cc1ccc(-c2ccc(CCN)cn2)c(Cn2cnc(-c3ccccn3)c2)c1 [compound 1160, 4-[5-(2-aminoethyl)pyridin-2-yl]-3-[(4-pyridin-2-ylimidazol-1-yl)methyl]benzonitrile] | > 1000 |
| Cc1nc(-c2cccc(F)c2)cn1Cc1cc(C#N)ccc1-c1ccc([C@H](O)CN)cn1 [compound 1161, 4-[5-[(1S)-2-amino-1-hydroxyethyl]pyridin-2-yl]-3-[[4-(3-fluorophenyl)-2-methylimidazol-1-yl]methyl]benzonitrile] | 10 to 1000 |

Now from value to compound:

| IC50 [nM] | SMILES |
| --- | --- |
| < 10 | N#Cc1ccc(-c2ncc(CCN)cn2)c(Cn2cnc(-c3ccccc3)c2)c1 [compound 1135, 4-[5-(2-aminoethyl)pyrimidin-2-yl]-3-[(4-phenylimidazol-1-yl)methyl]benzonitrile] |
| > 1000 | N#Cc1ccc(-c2ccc([C@@H](O)CN)cn2)c(Cn2cncc2-c2ccccc2)c1 [compound 1136, 4-[5-[(1R)-2-amino-1-hydroxyethyl]pyridin-2-yl]-3-[(5-phenylimidazol-1-yl)methyl]benzonitrile] |
| 10 to 1000 | N#Cc1ccc(-c2ccc([C@@H](O)CN)cn2)c(Cn2cnc(-c3ccccc3)c2)c1 [compound 1138, 4-[5-[(1R)-2-amino-1-hydroxyethyl]pyridin-2-yl]-3-[(4-phenylimidazol-1-yl)methyl]benzonitrile] |
| 10 to 1000 | Cc1nc(-c2ccccc2)cn1Cc1cc(C#N)ccc1-c1ccc(C(O)CN)cn1 (stereo not drawn) [compound 1139, 4-[5-(2-amino-1-hydroxyethyl)pyridin-2-yl]-3-[(2-methyl-4-phenylimidazol-1-yl)methyl]benzonitrile] |
| < 10 | N#Cc1ccc(-c2ccc(CCN)cn2)c(Cn2cnc(-c3ccccc3F)c2)c1 [compound 1143, 4-[5-(2-aminoethyl)pyridin-2-yl]-3-[[4-(2-fluorophenyl)imidazol-1-yl]methyl]benzonitrile] |
| < 10 | N#Cc1ccc(-c2ccc(CCN)cn2)c(Cn2cnc(-c3ccccc3Cl)c2)c1 [compound 1144, 4-[5-(2-aminoethyl)pyridin-2-yl]-3-[[4-(2-chlorophenyl)imidazol-1-yl]methyl]benzonitrile] |
| < 10 | Cc1ccccc1-c1cn(Cc2cc(C#N)ccc2-c2ccc(CCN)cn2)cn1 [compound 1145, 4-[5-(2-aminoethyl)pyridin-2-yl]-3-[[4-(2-methylphenyl)imidazol-1-yl]methyl]benzonitrile] |
| < 10 | Cc1cccc(-c2cn(Cc3cc(C#N)ccc3-c3ccc(CCN)cn3)cn2)c1 [compound 1148, 4-[5-(2-aminoethyl)pyridin-2-yl]-3-[[4-(3-methylphenyl)imidazol-1-yl]methyl]benzonitrile] |
| < 10 | N#Cc1ccc(-c2ccc(CCN)cn2)c(Cn2cnc(-c3cccc(F)c3)c2)c1 [compound 1149, 4-[5-(2-aminoethyl)pyridin-2-yl]-3-[[4-(3-fluorophenyl)imidazol-1-yl]methyl]benzonitrile] |
